ChEMBL document CHEMBL5370540, “Discovery of pyrimidine-5-carboxamide derivatives as novel salt-inducible kinases (SIKs) inhibitors for inflammatory bowel disease (IBD) treatment” (Eur J Med Chem, 2023)
Calls of active or inactive are those of the source. No cut-off for these calls is given here.

Legend:
[1] = AUC (0 to t) in Sprague-Dawley rat at 10 mg/kg, po measured upto 24 hrs by LC/MS/MS analysis; type: ADME, organism-based; set-up: dose 10 mg/kg, time < 24 hrs, route po; details: in vivo
[2] = biological target: Serine/threonine-protein kinase SIK2 (Mus musculus) (UniProt Q8CFH6); experiment: Inhibition of SIK2 in C57BL/6J mouse BMDM cells assessed as increase in Nurr77 mRNA level at 500 nM preincubated for 1 hr followed by LPS stimulation measured for 2 to 4 hrs by qPCR analysis; type: cell-based; details: time 3-5 hrs
[3] = biological target: Cytoplasmic tyrosine-protein kinase BMX (Homo sapiens) (UniProt P51813); experiment: Inhibition of Bmx (unknown origin) at 1 uM
Mus musculus [4] = experiment: Antiinflammatory activity in DSS-induced colitis C57BL/6J mouse model assessed as increase in colon length at 50 to 100 mg/kg, po measured after 12 days; type: functional, organism-based; details: dose 50-100 mg/kg, time 12.0 day
Mus musculus [5] = experiment: Antiinflammatory activity in DSS-induced colitis C57BL/6J mouse model assessed as decrease in thickening of inherent base layer at 50 to 100 mg/kg, po measured after 12 days by H&E staining based analysis; type: functional, organism-based; details: dose 50-100 mg/kg, time 12.0 day
[6] = biological target: Serine/threonine-protein kinase SIK2 (Mus musculus) (UniProt Q8CFH6); experiment: Inhibition of SIK2 in C57BL/6J mouse BMDM cells assessed as increase in arginase 1 mRNA level at 500 nM preincubated for 1 hr followed by LPS stimulation measured upto 8 hrs by qPCR analysis; type: cell-based; details: time <= 9.0 hrs
[7] = biological target: Activated CDC42 kinase 1 (Homo sapiens) (UniProt Q07912); experiment: Inhibition of ACK1 (unknown origin) at 1 uM
[8] = Selectivity ratio of IC50 for SIK3 (unknown origin) to IC50 for SIK2 (unknown origin)
[9] = Half life in Sprague-Dawley rat at 10 mg/kg, po measured upto 24 hrs by LC/MS/MS analysis; type: ADME, organism-based; details: in vivo
[10] = Clearance in Sprague-Dawley rat at 5 mg/kg, iv measured upto 24 hrs by LC/MS/MS analysis; type: ADME, organism-based; details: in vivo
[11] = biological target: Serine/threonine-protein kinase SIK2 (Mus musculus) (UniProt Q8CFH6); experiment: Inhibition of SIK2 in C57BL/6J mouse BMDM cells assessed as increase in SPHK1 mRNA level at 500 nM preincubated for 1 hr followed by LPS stimulation measured upto 8 hrs by qPCR analysis; type: cell-based; details: time <= 9.0 hrs
[12] = Selectivity ratio of IC50 for SIK1 (unknown origin) to IC50 for SIK2 (unknown origin)
[13] = biological target: Serine/threonine-protein kinase SIK2 (Mus musculus) (UniProt Q8CFH6); experiment: Inhibition of SIK2 in C57BL/6J mouse BMDM cells assessed as increase in c-FOS mRNA level at 500 nM preincubated for 1 hr followed by LPS stimulation measured for 1 hr by qPCR analysis; type: cell-based; details: time 2.0 hrs
[14] = biological target: Tyrosine-protein kinase Yes (Homo sapiens) (UniProt P07947); experiment: Inhibition of Yes (unknown origin) at 1 uM
[15] = biological target: Proto-oncogene tyrosine-protein kinase Src (Homo sapiens) (UniProt P12931); experiment: Inhibition of SRC (1 to 530 residues)(unknown origin) at 1 uM
Mus musculus [16] = experiment: Antiinflammatory activity in DSS-induced colitis C57BL/6J mouse model assessed as increase in colon length at 7.5 to 30 mg/kg, ip measured after 12 days; type: functional, organism-based; details: dose 7.5-30 mg/kg, time 12.0 day
Mus musculus [17] = experiment: Antiinflammatory activity in DSS-induced colitis C57BL/6J mouse model assessed as decrease in thickening of inherent base layer at 7.5 to 15 mg/kg, ip measured after 12 days by H&E staining based analysis; type: functional, organism-based; details: dose 7.5-15 mg/kg, time 12.0 day
BMDM [18] = experiment: Anti-inflammatory activity against C57BL/6J mouse BMDM cells assessed as increase in IL-10 level at 500 nM preincubated for 1 hr followed by LPS stimulation measured after 2 to 8 hrs by ELISA method; type: functional, cell-based; details: time 3-9 hrs
[19] = biological target: Tyrosine-protein kinase Blk (Homo sapiens) (UniProt P51451); experiment: Inhibition of BlK (unknown origin) at 1 uM
BMDM [20] = experiment: Anti-inflammatory activity against C57BL/6J mouse BMDM cells assessed as decrease in IL-12 level upto 500 nM preincubated for 1 hr followed by LPS stimulation measured after 8 hrs by ELISA method; type: functional, cell-based; details: time 9.0 hrs
Mus musculus [21] = experiment: Antiinflammatory activity in DSS-induced colitis C57BL/6J mouse model assessed as decrease in disease activity index at 7.5 to 30 mg/kg, ip; type: functional, organism-based; details: dose 7.5-30 mg/kg
BMDM [22] = experiment: Anti-inflammatory activity against C57BL/6J mouse BMDM cells assessed as decrease in IL-12 level at 500 nM preincubated for 1 hr followed by LPS stimulation measured after 8 hrs by ELISA method; type: functional, cell-based; details: time 9.0 hrs
[23] = biological target: Protein-tyrosine kinase 6 (Homo sapiens) (UniProt Q13882); experiment: Inhibition of BRK (unknown origin) at 1 uM
[24] = biological target: Serine/threonine-protein kinase SIK2 (Mus musculus) (UniProt Q8CFH6); experiment: Inhibition of SIK2 in C57BL/6J mouse BMDM cells assessed as increase in IL-12 mRNA level at 500 nM preincubated for 1 hr followed by LPS stimulation measured after 8 hrs by qPCR analysis; type: cell-based; details: time 9.0 hrs

Sequence of Serine/threonine-protein kinase SIK2 (Mus musculus) (Q8CFH6 whole entry): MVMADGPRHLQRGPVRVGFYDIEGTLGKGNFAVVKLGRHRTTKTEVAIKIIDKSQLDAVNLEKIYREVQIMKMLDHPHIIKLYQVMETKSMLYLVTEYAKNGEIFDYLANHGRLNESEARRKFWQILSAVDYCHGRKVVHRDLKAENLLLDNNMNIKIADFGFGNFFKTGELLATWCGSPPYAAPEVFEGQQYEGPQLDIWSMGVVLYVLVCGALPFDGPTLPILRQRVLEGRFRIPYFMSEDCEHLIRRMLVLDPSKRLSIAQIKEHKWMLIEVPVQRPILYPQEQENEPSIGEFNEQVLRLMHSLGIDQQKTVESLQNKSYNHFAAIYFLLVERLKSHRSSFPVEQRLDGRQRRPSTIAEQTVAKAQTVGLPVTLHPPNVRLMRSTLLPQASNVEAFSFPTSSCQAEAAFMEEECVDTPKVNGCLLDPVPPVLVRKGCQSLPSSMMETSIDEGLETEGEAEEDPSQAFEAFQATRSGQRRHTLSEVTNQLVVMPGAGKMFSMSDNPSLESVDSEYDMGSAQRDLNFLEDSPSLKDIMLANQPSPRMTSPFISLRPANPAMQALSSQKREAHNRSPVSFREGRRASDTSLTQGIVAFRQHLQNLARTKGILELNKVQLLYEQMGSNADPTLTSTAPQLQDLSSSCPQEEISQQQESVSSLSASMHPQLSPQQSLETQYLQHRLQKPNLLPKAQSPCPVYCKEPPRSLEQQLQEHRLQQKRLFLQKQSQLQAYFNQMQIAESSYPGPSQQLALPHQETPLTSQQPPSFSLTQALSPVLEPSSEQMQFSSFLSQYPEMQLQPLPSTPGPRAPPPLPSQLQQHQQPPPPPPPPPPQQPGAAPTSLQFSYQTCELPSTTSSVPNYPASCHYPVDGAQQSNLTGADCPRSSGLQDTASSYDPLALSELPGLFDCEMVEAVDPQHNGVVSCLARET
Sequence of Proto-oncogene tyrosine-protein kinase Src (Homo sapiens) (P12931 2-536 limits assumed): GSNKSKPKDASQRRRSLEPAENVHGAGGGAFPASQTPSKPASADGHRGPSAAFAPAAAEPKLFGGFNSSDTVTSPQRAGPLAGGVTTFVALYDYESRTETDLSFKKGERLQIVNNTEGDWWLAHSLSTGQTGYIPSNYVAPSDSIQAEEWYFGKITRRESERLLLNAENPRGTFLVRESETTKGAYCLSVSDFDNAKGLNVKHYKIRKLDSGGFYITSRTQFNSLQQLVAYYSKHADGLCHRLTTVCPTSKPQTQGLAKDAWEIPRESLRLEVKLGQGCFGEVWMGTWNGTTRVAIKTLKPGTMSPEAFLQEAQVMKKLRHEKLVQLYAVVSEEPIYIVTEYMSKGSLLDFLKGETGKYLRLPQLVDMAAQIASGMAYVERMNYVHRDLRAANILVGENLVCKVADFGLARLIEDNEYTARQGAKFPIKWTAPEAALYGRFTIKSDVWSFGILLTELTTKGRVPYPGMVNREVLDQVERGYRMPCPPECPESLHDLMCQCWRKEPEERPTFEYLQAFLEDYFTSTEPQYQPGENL
Sequence of Tyrosine-protein kinase Yes (Homo sapiens) (P07947 2-543 limits assumed): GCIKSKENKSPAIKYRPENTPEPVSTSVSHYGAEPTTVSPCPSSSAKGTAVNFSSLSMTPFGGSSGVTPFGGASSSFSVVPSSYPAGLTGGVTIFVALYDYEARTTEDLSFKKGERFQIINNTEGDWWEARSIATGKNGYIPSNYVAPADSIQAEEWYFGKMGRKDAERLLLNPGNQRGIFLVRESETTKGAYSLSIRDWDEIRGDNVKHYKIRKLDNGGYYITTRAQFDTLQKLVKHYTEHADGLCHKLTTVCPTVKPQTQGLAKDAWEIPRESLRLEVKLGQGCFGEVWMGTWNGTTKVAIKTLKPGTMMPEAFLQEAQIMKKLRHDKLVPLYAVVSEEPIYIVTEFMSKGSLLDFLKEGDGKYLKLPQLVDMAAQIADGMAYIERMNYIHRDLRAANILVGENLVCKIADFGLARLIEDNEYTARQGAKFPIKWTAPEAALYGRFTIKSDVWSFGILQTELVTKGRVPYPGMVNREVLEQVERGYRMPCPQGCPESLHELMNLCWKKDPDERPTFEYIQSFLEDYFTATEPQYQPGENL
Sequence of Activated CDC42 kinase 1 (Homo sapiens) (Q07912 whole entry, looked up): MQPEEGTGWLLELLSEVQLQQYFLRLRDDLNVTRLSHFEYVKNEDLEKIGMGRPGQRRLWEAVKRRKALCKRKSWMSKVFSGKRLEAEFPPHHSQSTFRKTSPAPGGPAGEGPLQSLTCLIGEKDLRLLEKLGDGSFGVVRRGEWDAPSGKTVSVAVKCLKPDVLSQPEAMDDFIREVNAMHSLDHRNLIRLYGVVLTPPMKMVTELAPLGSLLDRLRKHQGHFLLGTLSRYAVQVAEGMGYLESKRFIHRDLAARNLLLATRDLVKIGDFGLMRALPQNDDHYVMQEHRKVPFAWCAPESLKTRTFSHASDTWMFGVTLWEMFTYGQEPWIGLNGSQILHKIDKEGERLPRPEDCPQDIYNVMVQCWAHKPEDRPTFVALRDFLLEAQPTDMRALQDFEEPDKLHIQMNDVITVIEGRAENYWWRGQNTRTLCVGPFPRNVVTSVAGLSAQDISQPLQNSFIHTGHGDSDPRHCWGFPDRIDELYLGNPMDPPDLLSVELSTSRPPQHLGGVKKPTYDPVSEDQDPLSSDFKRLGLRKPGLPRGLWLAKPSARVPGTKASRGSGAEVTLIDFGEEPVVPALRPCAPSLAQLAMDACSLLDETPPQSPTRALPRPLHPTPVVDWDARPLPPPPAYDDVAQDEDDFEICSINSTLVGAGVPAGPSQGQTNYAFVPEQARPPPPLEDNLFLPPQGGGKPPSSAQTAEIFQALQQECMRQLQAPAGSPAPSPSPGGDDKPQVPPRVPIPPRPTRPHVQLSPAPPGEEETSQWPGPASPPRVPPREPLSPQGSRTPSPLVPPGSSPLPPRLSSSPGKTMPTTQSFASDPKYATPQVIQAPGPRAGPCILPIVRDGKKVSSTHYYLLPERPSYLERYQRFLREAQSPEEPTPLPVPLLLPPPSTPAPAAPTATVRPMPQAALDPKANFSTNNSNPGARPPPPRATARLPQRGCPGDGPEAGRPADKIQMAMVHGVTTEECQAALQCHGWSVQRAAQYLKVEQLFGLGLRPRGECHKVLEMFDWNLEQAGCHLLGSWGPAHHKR
Sequence of Protein-tyrosine kinase 6 (Homo sapiens) (Q13882 whole entry, looked up): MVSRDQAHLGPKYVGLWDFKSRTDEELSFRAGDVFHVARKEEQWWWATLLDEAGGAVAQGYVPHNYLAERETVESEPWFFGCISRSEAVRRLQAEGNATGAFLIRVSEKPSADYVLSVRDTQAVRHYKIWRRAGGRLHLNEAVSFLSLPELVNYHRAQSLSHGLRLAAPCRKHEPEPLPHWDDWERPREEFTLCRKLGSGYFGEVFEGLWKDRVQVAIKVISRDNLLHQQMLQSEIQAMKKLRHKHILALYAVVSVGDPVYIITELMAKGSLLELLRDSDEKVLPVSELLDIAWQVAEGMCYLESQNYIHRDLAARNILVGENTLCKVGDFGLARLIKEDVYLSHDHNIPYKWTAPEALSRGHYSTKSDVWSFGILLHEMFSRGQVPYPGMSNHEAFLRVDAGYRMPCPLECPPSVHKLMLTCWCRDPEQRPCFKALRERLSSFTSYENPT
Sequence of Tyrosine-protein kinase Blk (Homo sapiens) (P51451 2-505 limits assumed): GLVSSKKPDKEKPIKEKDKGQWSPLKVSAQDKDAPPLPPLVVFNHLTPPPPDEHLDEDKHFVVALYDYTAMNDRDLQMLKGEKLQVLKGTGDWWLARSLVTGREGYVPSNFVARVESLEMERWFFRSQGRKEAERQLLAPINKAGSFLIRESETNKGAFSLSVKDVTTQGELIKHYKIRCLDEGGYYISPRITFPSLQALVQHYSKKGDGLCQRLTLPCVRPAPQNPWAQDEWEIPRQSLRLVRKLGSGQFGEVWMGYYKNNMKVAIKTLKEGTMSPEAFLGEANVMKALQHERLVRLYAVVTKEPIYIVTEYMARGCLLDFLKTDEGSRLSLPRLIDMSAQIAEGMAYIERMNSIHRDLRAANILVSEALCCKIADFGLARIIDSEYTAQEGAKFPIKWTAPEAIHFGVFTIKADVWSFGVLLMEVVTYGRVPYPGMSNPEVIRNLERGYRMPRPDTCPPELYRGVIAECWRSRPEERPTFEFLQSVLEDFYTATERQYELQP
Sequence of Cytoplasmic tyrosine-protein kinase BMX (Homo sapiens) (P51813 whole entry): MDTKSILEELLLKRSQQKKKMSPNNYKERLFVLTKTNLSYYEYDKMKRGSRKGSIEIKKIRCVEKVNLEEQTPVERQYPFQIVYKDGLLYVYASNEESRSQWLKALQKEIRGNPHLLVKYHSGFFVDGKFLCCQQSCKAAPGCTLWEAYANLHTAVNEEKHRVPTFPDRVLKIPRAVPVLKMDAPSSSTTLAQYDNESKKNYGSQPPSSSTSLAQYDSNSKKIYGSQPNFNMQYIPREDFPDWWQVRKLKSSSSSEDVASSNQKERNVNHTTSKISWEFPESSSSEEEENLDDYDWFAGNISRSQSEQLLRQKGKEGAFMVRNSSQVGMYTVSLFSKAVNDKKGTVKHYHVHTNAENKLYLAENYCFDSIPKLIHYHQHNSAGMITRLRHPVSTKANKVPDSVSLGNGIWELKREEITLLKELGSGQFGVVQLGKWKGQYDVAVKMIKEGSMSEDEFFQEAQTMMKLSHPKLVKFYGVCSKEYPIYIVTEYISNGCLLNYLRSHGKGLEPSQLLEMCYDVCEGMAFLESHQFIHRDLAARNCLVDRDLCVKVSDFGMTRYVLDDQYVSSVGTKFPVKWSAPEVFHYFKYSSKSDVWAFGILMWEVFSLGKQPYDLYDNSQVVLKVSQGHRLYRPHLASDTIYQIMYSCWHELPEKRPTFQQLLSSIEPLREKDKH

AUC(0-t) at 24 h [1]: 9340 ng·h/mL
inhibition [2]: inactive
inhibition [3]: Active
inhibition [6]: Active
inhibition [7]: Active
Ratio IC50 [8]: 18.3
half-life [9]: 17.1 h
clearance [10]: 3.33 mL/min/kg
inhibition [11]: Active
Ratio IC50 [12]: 3
inhibition [13]: Active
inhibition [14]: Active
inhibition [15]: Active
inhibition [19]: Active
inhibition [23]: Active
inhibition [24]: inactive
SMILES: Cc1cccc(F)c1NC(=O)c1cnc(Nc2ccc(N3CCN(C)CC3)c(F)c2)nc1NC1CCC1
Activity (Mus musculus [4]): Active
Activity (Mus musculus [5]): Active
Activity (Mus musculus [16]): Active
Activity (Mus musculus [17]): Active
Activity (BMDM [18]): Active
Activity (BMDM [20]): Active
Activity (Mus musculus [21]): Active
Activity (BMDM [22]): Active
